From US12168055B2, “Sonosensitization” (priority 2019, dated 2024)
Like-named read-outs stand apart in the source and are kept apart here.

Experiments:
SAS cells = details: cited from earlier work; for cell viability: about 2 W/cm^2, 2 min
[1] = test system: U87 and U251 glioma cells, and U251^Oct-3/4 glioma stem-like cells; details: 5-ALA 1 mM + ultrasound 3 MHz, 2 W/cm^2, 20% duty cycle, 3 min; cited from earlier work
normal control cells = details: 5-ALA 1 mM + ultrasound 3 MHz, 2 W/cm^2, 20% duty cycle, 3 min; cited from earlier work
[2] = test system: human U87 glioma cells or U251^Oct-3/4 glioma stem-like cells; details: 5-ALA 100 mg/kg + ultrasound 2.2 MHz, 0.5 or 2.0 W/cm^2, 3 min, weekly for 3 weeks; cited from earlier work
C6 rat glioma cells = details: 5-ALA 100 mg/kg orally 3 h before ultrasound 1.04 MHz, 10 W/cm^2, 5 min; vs 5-ALA or ultrasound alone; cited from earlier work
C6 glioma cells = details: 5-ALA 60 mg/kg or Radachlorin 40 mg/kg + ultrasound 1.0 MHz, 2.65 W/cm^2, 20 min; vs control groups; cited from earlier work
[3] = test system: rat osteosarcoma UMR-106 cells; details: 5-ALA 250 mg/kg i.v. 8 h before ultrasound 1.0 MHz, 2.5 W/cm^2, 8 min daily for 10 days; vs all other groups; cited from earlier work
normal brain tissue = details: cited from earlier work
[4] = test system: human THP-1 monocytes (induced to become macrophages and foam cells); details: berberine 30 μg/mL, ultrasound 1.0 MHz, 0.4 W/cm^2, 10 min; cited from earlier work
mammary tumors = details: porfimer sodium 2.5 mg/kg or higher i.v. 24 h before ultrasound 1.92 MHz, 15 min, 3 W/cm^2 or higher; cited from earlier work

Method for C6 glioma tumor cells: Male Wistar rats received injections of 4×10^5 C6 glioma tumor cells by injection into the right cortex of the brain. On day 7 after injection, rats were administered 5-aminolevulinic acid (20 mg/kg or 0 mg/kg, Levulan®, DUSA Pharmaceuticals, Wilmington, MA) orally, three hours prior to treatment.
Rats were anesthetized and set inside an MRI-guided focused ultrasound system (“FUS”, RK300, FUS Instruments, Toronto, Canada), having a 25 mm diameter spherically curved transducer (resonant frequency f0=1.06 MHz, focal number=0.8). The FUS, with rat, was then inserted into a 7 Telsa MRI system (Brucker BioSpec 70/30 USR, Bruker Ltd., Milton, Ontario, Canada). The MRI was used to precisely aim the FUS device at the brain tumor. Rats were then sonicated at one of four spatial peak temporal average intensities (ISPTA) (6.9 W/cm^2, 13.8 W/cm^2, 27.6 W/cm^2, or 55.2 W/cm^2) for 20 minutes. One group (N=6) was cyclicly sonicated at 27.6 W/cm^2 for 20 minutes, divided into 16 sonication periods of 85 seconds, separated by rest periods of 60 seconds (the multiple point, or “MP” group). In the MP group, 16 individual points within the tumor were sonicated. Control groups (N=5 each) received 5-ALA without FUS treatment, FUS treatment without 5-ALA, or neither 5-ALA nor FUS. Tumor temperature was monitored during sonication using magnetic resonance thermometry. Normalized tumor volume was measured by MRI on days 7, 14, 21, 28, and 35 following injection.

NCC(=O)CCC(=O)O [5-ALA, 5-aminolevulinic acid]
survival, multiple point (MP) group (C6 glioma tumor cells; 5-ALA 20 mg/kg + FUS 27.6 W/cm^2, 16 points, 16 periods of 85 s with 60 s rest): greatest increase in survival | survival (C6 glioma tumor cells; 5-ALA 20 mg/kg orally 3 h before FUS (1.06 MHz, 20 min), all experimental groups): improved survival | tumor growth (C6 glioma tumor cells; 5-ALA 20 mg/kg orally 3 h before FUS (1.06 MHz, 20 min), all experimental groups vs control animals): inhibited tumor growth | tissue damage (C6 glioma tumor cells; 5-ALA 20 mg/kg, sonication at 55.2 W/cm^2): suffered tissue damage | normalized tumor volume (C6 glioma tumor cells; 5-ALA only group (20 mg/kg orally), no FUS): 24+6 mm^3 | subjects surviving past 60 days (C6 glioma tumor cells; MP group: 5-ALA 20 mg/kg + FUS 27.6 W/cm^2 at 16 points): 50% | SAS cell apoptosis, intracellular reactive oxygen species, and lipid peroxidation (SAS cells; 10 μg/mL 5-ALA added to ultrasound, vs ultrasound alone): significantly increased these effects | cell viability (SAS cells; 5-ALA 1 μg/mL 4 h before ultrasound 1.05 MHz): 88% | cell viability (SAS cells; 5-ALA 10 μg/mL 4 h before ultrasound 1.05 MHz): 75% | cell viability (SAS cells; 5-ALA 50 μg/mL 4 h before ultrasound 1.05 MHz): 62% | cytotoxicity to tumor cells [1]: substantially cytotoxic to all tumor cells tested | cytotoxicity to normal control cells (normal control cells): not to normal control cells | survival of treated mice [2]: significantly improved the survival | tumor size (C6 rat glioma cells): significantly smaller tumors | tumor size (C6 glioma cells): significantly smaller in size | tumor volumes [3]: significantly smaller than all other groups

O=C([O-])c1c(Cl)c(Cl)c(Cl)c(Cl)c1-c1c2cc(I)c(=O)c(I)c-2oc2c(I)c([O-])c(I)cc12.[Na+].[Na+] [Rose Bengal]
rats displaying lesions (normal brain tissue; Rose Bengal 10 mg/kg, ultrasound 110 W/cm^2, 3 min): 5/5 | rats displaying lesions (normal brain tissue; Rose Bengal 10 mg/kg, ultrasound 110 W/cm^2, 5 min): 6/7 | rats displaying lesions (normal brain tissue; Rose Bengal 50 mg/kg, ultrasound 110 W/cm^2, 3 min): 5/5 | rats displaying lesions (normal brain tissue; Rose Bengal 50 mg/kg, ultrasound 110 W/cm^2, 5 min): 6/6 | lesions in normal brain tissue (normal brain tissue; ultrasound 25 W/cm^2, with or without Rose Bengal): no lesions

COc1ccc2cc3[n+](cc2c1OC)CCc1cc2c(cc1-3)OCO2 [berberine]
autophagy in macrophages [4]: induced autophagy in macrophages | cholesterol efflux [4]: increased cholesterol efflux

porfimer sodium
tumor growth (mammary tumors): effectively inhibited tumor growth
